# Test results: publication PMC9226124, “Macrocycle-stabilization of its interaction with 14-3-3 increases plasma membrane localization and activity of CFTR” (Nature Communications, 2022)
# “And” between values parts separate entries of the source, which are not always exact repeats. Equal values may be shown once.
# Experiments:
# Assay type in all cases: binding
# [1] = target: T1, FITC-labeled CFTRpS753pS768 peptide (no 14-3-3) (Homo sapiens, UniProt P13569); experiment: Dose-response FP control assay in the absence of 14-3-3; conditions: No 14-3-3
# T1 construct: made in house; host or cells: synthetic peptide
# T1 sequence (P13569 747-774 limits assumed): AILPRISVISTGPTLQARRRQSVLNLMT
# Outline: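 Control run without 14-3-3: FITC-CFTR pS753/pS768 peptide (100 nM or 10 nM) with compound titrated in twofold dilutions in 10 mM HEPES pH 7.4, 150 mM NaCl, 0.1% Tween20, 1 mg/mL BSA. Fluorescence polarization read at ex 485/em 535 nm, background subtracted, n = 3. Curves fitted by four-parameter log(agonist) vs. response.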
# [2] = target: T2, 14-3-3β/CFTRpS753pS768 complex (Homo sapiens, UniProt P13569+P31946); experiment: Dose-response fluorescence polarization (FP) assay, compound titration; conditions: for FP signal: With 14-3-3
# T2 construct: His6 (cleaved yes); made in house; peptide synthetic
# T2 sequence (P31946 whole entry): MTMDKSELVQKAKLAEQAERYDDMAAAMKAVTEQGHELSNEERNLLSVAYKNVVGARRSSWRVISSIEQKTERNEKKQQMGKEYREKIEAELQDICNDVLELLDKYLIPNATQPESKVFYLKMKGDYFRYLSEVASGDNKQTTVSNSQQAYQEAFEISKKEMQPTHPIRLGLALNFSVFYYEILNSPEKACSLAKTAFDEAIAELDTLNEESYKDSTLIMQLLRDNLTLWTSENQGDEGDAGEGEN
# Outline: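 Compounds were titrated in two-fold dilutions against 10 μM 14-3-3β and FITC-CFTR pS753pS768 peptide (100 nM or 10 nM). Buffer: 10 mM HEPES pH 7.4, 150 mM NaCl, 0.1% Tween20, 1 mg/mL BSA. Polarization was read at ex 485/em 535 nm, and EC50 was derived from a four-parameter variable-slope fit.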
# [3] = target: T2, 14-3-3β/CFTRpS753pS768 complex; experiment: FP assay, 14-3-3β titration at constant compound concentration (apparent KD)
smiles,measurement,setting,value
N=C(N)NCCCC1NC(=O)C(CCC(N)=O)NC(=O)C(CCCNC(=N)N)NC(=O)C2CCCN2Cc2cccc(c2)-c2ccccc2CNC1=O (stereo not drawn) [CY007458],FP signal,[1]; compound 476.8 pM,6
same,FP signal,[1]; compound 953.7 pM,5
same,FP signal,[1]; compound 1.90735e-9 M,4
same,FP signal,[1]; compound 3.8147e-9 M,5
same,FP signal,[1]; compound 7.6294e-9 M,7
same,FP signal,[1]; compound 1.52588e-8 M,4
same,FP signal,[1]; compound 3.05176e-8 M,6
same,FP signal,[1]; compound 6.10352e-8 M,5
same,FP signal,[1]; compound 1.2207e-7 M,4
same,FP signal,[1]; compound 2.44141e-7 M,5
same,FP signal,[1]; compound 4.88281e-7 M,6
same,FP signal,[1]; compound 9.76563e-7 M,6
same,FP signal,[1]; compound 1.95313e-6 M,5
same,FP signal,[1]; compound 3.90625e-6 M,8
same,FP signal,[1]; compound 7.8125e-6 M,11
same,FP signal,[1]; compound 1.5625e-5 M,15
same,FP signal,[1]; compound 3.125e-5 M,33
same,FP signal,[1]; compound 6.25e-5 M,65
same,FP signal,[1]; compound 0.000125 M,124
same,FP signal,[1]; compound 0.00025 M,179
same,FP signal,[1]; compound 0.0005 M,221
same,FP signal,[1]; compound 0.001 M,252
same,EC50,"[2]; 14-3-3β 10 μM, labeled CFTRpS753pS768 100 nM, read-out: EC50",151 µM
same,FP signal,[2]; compound 476.8 pM,6
same,FP signal,[2]; compound 953.7 pM,5
same,FP signal,[2]; compound 1.90735e-9 M,4
same,FP signal,[2]; compound 3.8147e-9 M,5
same,FP signal,[2]; compound 7.6294e-9 M,7
same,FP signal,[2]; compound 1.52588e-8 M,4
same,FP signal,[2]; compound 3.05176e-8 M,6
same,FP signal,[2]; compound 6.10352e-8 M,5
same,FP signal,[2]; compound 1.2207e-7 M,4
same,FP signal,[2]; compound 2.44141e-7 M,5
same,FP signal,[2]; compound 4.88281e-7 M,6
same,FP signal,[2]; compound 9.76563e-7 M,6
same,FP signal,[2]; compound 1.95313e-6 M,5
same,FP signal,[2]; compound 3.90625e-6 M,8
same,FP signal,[2]; compound 7.8125e-6 M,11
same,FP signal,[2]; compound 1.5625e-5 M,15
same,FP signal,[2]; compound 3.125e-5 M,33
same,FP signal,[2]; compound 6.25e-5 M,65
same,FP signal,[2]; compound 0.000125 M,124
same,FP signal,[2]; compound 0.00025 M,179
same,FP signal,[2]; compound 0.0005 M,221
same,FP signal,[2]; compound 0.001 M,252
same,"Fluorescence polarization signal, 14-3-3β titration","[3]; CY compound (100 μM), 14-3-3β concentration 1.5625e-5 M",76.6667
same,"Fluorescence polarization signal, 14-3-3β titration","[3]; CY compound (100 μM), 14-3-3β concentration 3.125e-5 M",83.6667 and 85.6667
same,"Fluorescence polarization signal, 14-3-3β titration","[3]; CY compound (100 μM), 14-3-3β concentration 6.25e-5 M",102.667 and 98.6667 and 101.667
same,"Fluorescence polarization signal, 14-3-3β titration","[3]; CY compound (100 μM), 14-3-3β concentration 0.000125 M",115.667 and 111.667 and 118.667
same,"Fluorescence polarization signal, 14-3-3β titration","[3]; CY compound (100 μM), 14-3-3β concentration 0.00025 M",131.667 and 136.667 and 132.667
same,"Fluorescence polarization signal, 14-3-3β titration","[3]; CY compound (100 μM), 14-3-3β concentration 0.0005 M",153.667 and 151.667 and 152.667
same,"Fluorescence polarization signal, 14-3-3β titration","[3]; FC-A + CY compound, 14-3-3β concentration 1.5625e-5 M",140.333 and 143.333 and 144.333
same,"Fluorescence polarization signal, 14-3-3β titration","[3]; FC-A + CY compound, 14-3-3β concentration 3.125e-5 M",147.333 and 148.333 and 150.333
same,"Fluorescence polarization signal, 14-3-3β titration","[3]; FC-A + CY compound, 14-3-3β concentration 6.25e-5 M",156.333
same,"Fluorescence polarization signal, 14-3-3β titration","[3]; FC-A + CY compound, 14-3-3β concentration 0.000125 M",159.333 and 161.333 and 160.333
same,"Fluorescence polarization signal, 14-3-3β titration","[3]; FC-A + CY compound, 14-3-3β concentration 0.00025 M",164.333 and 167.333
same,"Fluorescence polarization signal, 14-3-3β titration","[3]; FC-A + CY compound, 14-3-3β concentration 0.0005 M",175.333 and 176.333 and 172.333
